Assay results taken from PubChem BioAssay (NCI).
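How tested: cells in 96-well plates exposed to compound for 48 hours at five concentrations. Definition used: TGI = concentration required for complete inhibition of growth.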

Columns and labels:
Test in all cases: DTP human tumour cell line panel, 48 h
[1] = tested on: 786-0 renal
[2] = tested on: A498 renal
[3] = tested on: A549 NSCLC
[4] = tested on: ACHN renal
[5] = tested on: BT-549 breast
[6] = tested on: CAKI-1 renal
[7] = tested on: CCRF-CEM leukemia
[8] = tested on: COLO 205 colon
[9] = tested on: DU-145 prostate
[10] = tested on: EKVX NSCLC
[11] = tested on: HCC-2998 colon
[12] = tested on: HCT-116 colon
[13] = tested on: HCT-15 colon
[14] = tested on: HL-60(TB) leukemia
[15] = tested on: HOP-62 NSCLC
[16] = tested on: HOP-92 NSCLC
[17] = tested on: HS 578T breast
[18] = tested on: HT29 colon
[19] = tested on: IGROV1 ovarian
[20] = tested on: K-562 leukemia
[21] = tested on: KM12 colon
[22] = tested on: LOX IMVI melanoma
[23] = tested on: M14 melanoma
[24] = tested on: MALME-3M melanoma
[25] = tested on: MCF7 breast
[26] = tested on: MDA-MB-231 breast
[27] = tested on: MDA-MB-435
[28] = tested on: MDA-N
[29] = tested on: MOLT-4 leukemia
[30] = tested on: NCI-H226 lung
[31] = tested on: NCI-H23 lung
[32] = tested on: NCI-H460 lung
[33] = tested on: NCI-H522 lung
[34] = tested on: NCI/ADR-RES ovarian
[35] = tested on: OVCAR-3 ovarian
[36] = tested on: OVCAR-4 ovarian
[37] = tested on: OVCAR-5 ovarian
[38] = tested on: OVCAR-8 ovarian
[39] = tested on: PC-3 prostate
[40] = tested on: RPMI-8226 leukemia
[41] = tested on: RXF 393 renal
[42] = tested on: SF-268 CNS
[43] = tested on: SF-295 CNS
[44] = tested on: SF-539 CNS
[45] = tested on: SK-MEL-2 melanoma
[46] = tested on: SK-MEL-28 melanoma
[47] = tested on: SK-MEL-5 melanoma
[48] = tested on: SK-OV-3 ovarian
[49] = tested on: SN12C renal
[50] = tested on: SNB-19 CNS
[51] = tested on: SNB-75 CNS
[52] = tested on: SR leukemia
[53] = tested on: SW-620 colon
[54] = tested on: T-47D breast
[55] = tested on: TK-10 renal
[56] = tested on: U251 CNS
[57] = tested on: UACC-257 melanoma
[58] = tested on: UACC-62 melanoma
[59] = tested on: UO-31 renal

In the case of `CCN(CC)c1ccc2c(c1)Oc1ccc(N(C(C)=O)c3ccccc3)cc1C21OC(=O)c2ccccc21` (stereo not drawn), the TGI [1] is reported as > 100 µM, the TGI [2] is reported as > 100 µM and the TGI [3] is reported as > 100 µM. For the same compound, the TGI [4] was > 100 µM, the TGI [5] was > 100 µM and the TGI [6] was > 100 µM. For the same compound, the TGI [7] was > 100 µM, the TGI [8] was > 100 µM and the TGI [9] was > 100 µM. The TGI [10] was > 100 µM, the TGI [11] was > 100 µM and the TGI [12] was > 100 µM. For the same compound, the TGI [13] was > 100 µM, the TGI [14] was 97.6 µM and the TGI [15] was > 100 µM. The TGI [16] was > 100 µM, the TGI [17] was > 100 µM and the TGI [18] was > 100 µM. The TGI [19] was > 100 µM, the TGI [20] was > 100 µM and the TGI [21] was > 100 µM. The TGI [22] was > 100 µM, the TGI [23] was > 100 µM and the TGI [24] was > 100 µM. The TGI [25] was > 100 µM, the TGI [26] was > 100 µM and the TGI [27] was > 100 µM. The TGI [28] was > 100 µM, the TGI [29] was > 100 µM and the TGI [30] was > 100 µM. For the same compound, the TGI [31] was > 100 µM, the TGI [32] was > 100 µM and the TGI [33] was > 100 µM. The TGI [34] was > 100 µM, the TGI [35] was > 100 µM and the TGI [36] was > 100 µM. For the same compound, the TGI [37] was > 100 µM, the TGI [38] was > 100 µM and the TGI [39] was > 100 µM. The TGI [40] was > 100 µM, the TGI [41] was > 100 µM and the TGI [42] was > 100 µM. For the same compound, the TGI [43] was > 100 µM, the TGI [44] was > 100 µM and the TGI [45] was > 100 µM. For the same compound, the TGI [46] was > 100 µM, the TGI [47] was > 100 µM and the TGI [48] was > 100 µM. For the same compound, the TGI [49] was > 100 µM, the TGI [50] was > 100 µM and the TGI [51] was > 100 µM. For the same compound, the TGI [52] was > 100 µM, the TGI [53] was > 100 µM and the TGI [54] was > 100 µM. The TGI [55] was > 100 µM, the TGI [56] was > 100 µM and the TGI [57] was > 100 µM. The TGI [58] was > 100 µM and the TGI [59] was > 100 µM.
For `O=C(CCCC1Cc2ccccc2C1=O)c1ccccc1` (stereo not drawn), the TGI [1] was > 100 µM, the TGI [2] was > 100 µM and the TGI [3] was > 100 µM. The TGI [4] was > 100 µM, the TGI [5] was > 100 µM and the TGI [6] was > 100 µM. For the same compound, the TGI [7] was > 100 µM, the TGI [8] was > 100 µM and the TGI [9] was > 100 µM. The TGI [10] was > 100 µM, the TGI [11] was > 100 µM and the TGI [12] was > 100 µM. The TGI [13] was > 100 µM, the TGI [14] was 77.4 µM and the TGI [15] was > 100 µM. The TGI [16] was > 100 µM, the TGI [17] was > 100 µM and the TGI [18] was > 100 µM. The TGI [19] was > 100 µM, the TGI [20] was > 100 µM and the TGI [21] was > 100 µM. The TGI [22] was > 100 µM, the TGI [23] was > 100 µM and the TGI [24] was > 100 µM. For the same compound, the TGI [25] was 56.3 µM, the TGI [26] was > 100 µM and the TGI [27] was > 100 µM. The TGI [28] was > 100 µM, the TGI [29] was > 100 µM and the TGI [30] was > 100 µM. The TGI [31] was > 100 µM, the TGI [32] was > 100 µM and the TGI [33] was > 100 µM. The TGI [34] was 84.6 µM, the TGI [35] was > 100 µM and the TGI [36] was > 100 µM. The TGI [37] was > 100 µM, the TGI [38] was > 100 µM and the TGI [39] was > 100 µM. The TGI [40] was > 100 µM, the TGI [41] was > 100 µM and the TGI [42] was > 100 µM. For the same compound, the TGI [43] was > 100 µM, the TGI [44] was > 100 µM and the TGI [45] was > 100 µM. The TGI [46] was > 100 µM, the TGI [47] was > 100 µM and the TGI [48] was > 100 µM. The TGI [49] was > 100 µM, the TGI [50] was > 100 µM and the TGI [51] was > 100 µM. For the same compound, the TGI [52] was > 100 µM, the TGI [53] was > 100 µM and the TGI [54] was > 100 µM. The TGI [55] was > 100 µM, the TGI [56] was > 100 µM and the TGI [57] was > 100 µM. The TGI [58] was > 100 µM and the TGI [59] was > 100 µM.
